Results from patent US20160272709A1, “ANTI-KIR ANTIBODIES” (The Regents of the University of Michigan, priority 2015, published 2016).

Key:
[1] = lupus patients; cited from earlier work
[2] = tested on: CD4^+KIR^+NK1.1^− cells; assay: Flow cytometry (6G10) of KIR on CD4+ splenocytes of tet-on dnMEK transgenic mice receiving dox; format: in vivo
Description: FIGS. 3A-B.) Double transgenic mice were given Dox (B) or not (A) in their drinking water, then KirL1 expression was measured on CD4+ splenocytes by flow cytometry.
(§1) To test if the mouse T cell KIR genes are also activated by DNA methylation inhibition, murine splenocytes were stimulated with ConA, treated with 5-azaC, and KIRL1 mRNA measured relative to GAPDH by RT-PCR in CD4+ T cells bead purified by negative selection to remove NK and other non-CD4+ T cells.

[3] = tested on: CD4^+KIRL1^+CD11a^hiCD40L^+ subset; assay: Multicolor flow cytometry of splenocytes of SJL mice given dox for 6 weeks; format: in vivo; details: dox 6 weeks; controls 0.007%
Source text: SJL mice were given dox for 6 weeks, sacrificed, then splenocytes stained with Pacific Blue-CD3; FITC-CD8; PE-CD40L; PE-Cy5-CD4; Avidin-APC-Cy7/biotin-KIRL1; PERCP-Cy5.5-CD11a. Mice receiving dox developed a CD4^+KIRL1^+CD11a^hiCD40L^+ subset that resembles the human lupus subset shown in FIG. 1, and represented 1.09% of the total CD11a+ cells, while controls had only 0.007% CD4^+KIRL1^+CD11a^hiCD40L^+ cells.

[4] = tested on: CD4^+KIR^+NK1.1^− cells; assay: Flow cytometry (6G10) of KIR on murine T cells treated with 5-azaC; format: cell-based
[5] = tested on: KIRL1 mRNA; assay: KIRL1 mRNA relative to GAPDH by RT-PCR in CD4+ T cells from 5-azaC treated splenocytes; format: cell-based, murine; details: ConA-stimulated splenocytes, n=4, p=0.038
Description: FIGS. 2A-B. (A) Murine splenocytes were stimulated with […], treated or not with 5-azaC, then KirL1 mRNA was measured in CD4^+ T cells relative to GAPDH by RT-PCR. (B) Double transgenic mice were given Dox or not in their drinking water, then KirL1 mRNA measured in CD4+ splenocytes as in panel A.
as §1

[6] = tested on: CD3^+CD4^+CD28^+ T cells; assay: KIR and CD11a expression on PHA-stimulated, 5-azaC treated PBMC (flow cytometry); format: cell-based, human
Description: FIGS. 11A-D. 5-Azacytidine treatment of PHA-stimulated PBMC induces the expression of KIR proteins on a subset of CD4^+CD28^+CD11a^hi T cells. PBMC were stimulated for 18-24 hrs with PHA followed by treatment with 2.5 μM 5-azacytidine or saline for 72 hrs. The cells were then stained with fluorochrome-conjugated antibodies to methylation-sensitive gene products, fixed and analyzed by flow cytometry as described in Methods. Gating was established to select CD3^+CD4^+CD28^+ T cells. The CD3^+CD4^+CD28^+ T cells were then analyzed for CD11a and KIR using a cocktail of 5 PE-conjugated anti-KIR antibodies and imaged on a FACS Synergy flow cytometer. (A), Untreated T cells. (B), 5-azaC treated T cells. (C), 5-azaC treated PBMC stained only with the cocktail of anti-KIR antibodies. (D), 5-azaC treated T cells stained with antibodies to CD3, CD4, CD28, CD11a, CD70 and CD40L but not KIR. The figure shown is representative of 9 separate cultures.
The expression of methylation-sensitive genes was analyzed in 5-azaC treated cells from healthy women. PBMCs from a healthy […] were stimulated with PHA then cultured with or without 5-azaC. Seventy-two hours later the cells were washed, stained with fluorochromeconjugated antibodies to CD3, CD4, CD28, CD11a, CD70 and CD40L with and without a “cocktail” of PE conjugated antibodies to 5 distinct KIR proteins then analyzed by flow cytometry as outlined in FIG. 10. […]
In the absence of treatment with the demethylating agent 5-azaC very few KIR+ cells were observed (FIG. 11A). […] Further, CD11a expression on the majority (>70%) of the KIR^+CD3^+CD4^+CD28^+ cells treated with 5-azaC (FIG. 11B, rectangle) was nearly twice that of the corresponding KIR− T cells (FIG. 11B, circle) from the same cultures (median fluorescence intensity 2298+/−748 SD, versus 1394+/−572, respectively, n=9 analyzed in 7 different experiments, p<0.001). […]

Structure (SMILES): CC(=O)N[C@@H](CS)C(=O)O [N-acetylcysteine]
- flare severity [1]: decreases flare severity

Structure (SMILES): C[C@H]1c2cccc(O)c2C(=O)C2=C(O)[C@]3(O)C(=O)C(C(N)=O)=C(O)[C@@H](N(C)C)[C@@H]3[C@@H](O)[C@@H]21 [dox, doxycycline]
- KIR expression, % of total CD4+ T cells ([2]; tet-on mouse with higher KIR expression, FIGS. 3A-B): 3.9%
- increase in CD4^+KIR^+NK1.1^− cells ([2]; transgenic mice receiving dox): 5.7 fold
- CD4^+KIRL1^+CD11a^hiCD40L^+ subset, % of total CD11a+ cells [3]: 1.09%

Structure (SMILES): Nc1ncn([C@@H]2O[C@H](CO)[C@@H](O)[C@H]2O)c(=O)n1 [5-azaC, 5-azacytidine]
- increase in CD4^+KIR^+NK1.1^− cells [4]: 3.1 fold
- KIRL1 mRNA relative to GAPDH [5]: overexpressed KIRL1 mRNA
- numbers of KIR+ cells ([6]; 2.5 μM 5-azaC 72 hrs after PHA): increases the numbers of KIR+ cells
- CD11a median fluorescence intensity on KIR^+CD3^+CD4^+CD28^+ cells ([6]; 5-azaC treated cultures, SD, n=9, p<0.001 vs KIR− cells): 2298+/−748
- CD11a median fluorescence intensity on corresponding KIR− T cells ([6]; same 5-azaC treated cultures, SD, n=9): 1394+/−572
